This is an account of results in patent publication US20240050399A1, “PHARMACEUTICAL COMPOSITIONS, COMPRISING A COMBINATION OF SELECT CARRIERS AND […] ANTIPATHOGENS” (EpitoGenesis, Inc., priority 2020, published 2024).

The test system of this assay is SARS-CoV-2 USA-WA1/2020. In words: Neutralization assay of SARS-CoV-2 with EGCG, quantified by Avicel plaque reduction assay on VeroE6 cells. In kind it is cell-based. Conditions: for IC50: normalized against control (virus in DMEM). (In general: Plaque reduction counts the foci of infection that form in a cell layer.)

Each structure is given as a SMILES string. Values after ≈ are worked out from the molar mass of the structure shown.

What is called IC50 is the concentration that gives 50% inhibition. A high value points to lower potency.

For the compound `O=C(O[C@@H]1Cc2c(O)cc(O)cc2O[C@@H]1c1cc(O)c(O)c(O)c1)c1cc(O)c(O)c(O)c1` [EGCG, epigallocatechin gallate], the “in vitro antiviral activity on vero cells infected with SARS-CoV-2” value (FIG. 1, plaque reduction) is “strong in vitro antiviral activity”. The concentration for half-maximal inhibition (IC50) reads like this: (dilution series 1) 42.65 µg/mL (≈ 93 µM); (dilution series 2) 32.89 µg/mL (≈ 71.8 µM); (dilution series 3) 36.09 µg/mL (≈ 78.7 µM).
